Measured values: patent US20100061984A1, “COMPOSITIONS AND METHODS FOR MODULATION OF SUPPRESSOR T CELL ACTIVATION” (The Trustees of the University of Pennsylvania, priority 2006, published 2010)
Marks after values point to notes of the source that are not given here.

Columns and labels:
autoimmune models = test: several autoimmune models (NOD, EAE, CIA); assay type: in vivo; conditions: MOG-induced EAE and CIA mouse models
From the text: Studies of the rational inactivation of HDACs have been initiated with the intent of modifying FOXP3 acetylation. […] This treatment leads to increased FoxP3^+ suppressor cell levels and function. The models studied include the Nonobese Diabetic Mice (NOD) model, the myelin oligodendrocyte glycoprotein-induced experimental autoimmune encephalomyelitis (EAE) model, and the collagen-induced arthritis (CIA) mouse model.

[1] = test system: Experimental Autoimmune Encephalomyelitis; test: experimental autoimmune encephalomyelitis model (MOG38-50 peptide); assay type: in vivo; conditions: Table 1, 7-10 mice per group, PBS 100%
From the text: (§1) Experiments were done to test the effect of valproic acid (VPA) on autoimmune disease models. Three models were used: a collagen induced arthritis (CIA) model; a non-obese diabetic mouse model; and an experimental autoimmune encephalomyelitis model. Collagen used in the CIA model was collagen from chicken sternal cartilage powder, Type II, from Sigma Cat#C9301. The peptide that was used in EAE experiments was Mouse MOG38-50 peptide ([…]-SEQ ID NO:1), which was synthesized using>F-moc solid phase methods and purified through HPLC by Invitrogen Life Technologies. For each model tested 7-10 mice were used per group. Results obtained with VPA were compared to those using the negative control phosphate buffered saline.

Non-obese diabetic mouse = test: non-obese diabetic mouse model; assay type: in vivo; conditions: Table 1, 7-10 mice per group, PBS 50%
From the text: as §1

[2] = test system: collagen induced arthritis (CIA); test: collagen induced arthritis (CIA) disease model of rheumatoid arthritis; assay type: in vivo, mice
Protocol: (§2) HDAC inhibitor treatment in collagen induced arthritis: HDAC inhibitor VPA was tested in the collagen induced arthritis (CIA) disease model of rheumatoid arthritis. CD4+ T cells as well as B cells are responsible for disease manifestation within the joints and CD25+ Treg play a protective role in disease development. After disease induction with type II collagen, mice were administered VPA (400 mg/kg) or PBS ip daily for 5 weeks. They were scored for severity of disease twice per week. […] Splenocytes from collagen induced arthritic mice that were treated with VPA (no disease evident) or PBS (disease evident) were analyzed for expression of CD4, CD25 and FOXP3 by flow cytometry. […] Additionally, the intracellular levels of FOXP3 protein were elevated in the VPA treated mice compared to PBS mice (FIG. 10). […] In proposed studies VPA treated CD25+ cells will be compared to PBS treated CD25+ cells for increased functional regulatory activity in vitro. HDAC inhibitor VPA is able to modify disease progression in the CIA model of rheumatoid arthritis.
as §1

FOXP3+CD25+ cells = test: flow cytometry of splenocytes from collagen induced arthritic mice for CD4, CD25 and FOXP3; assay type: in vivo
Protocol: Splenocytes from collagen induced arthritic mice treated with VPA (no disease evident) or PBS (disease evident) were stained for cell-surface CD25 and intracellular FOXP3. The CD25+FOXP3+cell subpopulation was gated, and FOXP3 level was analyzed.
as §2

SMILES | FoxP3+ suppressor cell levels and function (autoimmune models) | clinical effects in autoimmune models (autoimmune models) | Incidence of Disease [1] [%*] | Incidence of Disease (Non-obese diabetic mouse) [%] | Incidence of Disease ([2]; Collagen Induced Arthritis, Table 1, 7-10 mice per group, PBS 100%) [%] | mice showing any disease at the end of the 5 week study ([2]; VPA 400 mg/kg ip daily for 5 weeks after induction with type II collagen, PBS group 100%) [%] | disease severity compared to PBS treated ([2]; VPA 400 mg/kg ip daily for 5 weeks, scored twice per week) | intracellular levels of FOXP3 protein compared to PBS mice (FOXP3+CD25+ cells; CD25+FOXP3+ gated splenocytes from CIA mice (FIG. 10)) | increase in the percentage of FOXP3+CD25+ cells, VPA treated versus PBS treated splenocytes (FOXP3+CD25+ cells; splenocytes from CIA mice, flow cytometry) [fold]
CC(/C=C/C(=O)NO)=C\[C@@H](C)C(=O)c1ccc(N(C)C)cc1 [TSA, Trichostatin A] | increased | significant clinical effects |  |  |  |  |  |  | 
CCCC(CCC)C(=O)O [VPA, valproic acid] | increased | significant clinical effects | 57 | 20 | 29 | 25 | greatly reduced | elevated | 1.63
